The results in this text go back to patent US20260008758A1, “LINEAR DIPEPTIDYL PEPTIDASE 1 INHIBITORS AND USES THEREOF” (Insmed Incorporated, priority 2024, published 2026).

What is called IC50 is the concentration needed to halve the response being measured.

The target in one experiment is DPP1 in HL-60 cells (Homo sapiens (Human), UniProt P53634). In words: DPP1 Cell IC50 assay. It is filed as cell-based. To be noted: H-Gly-Phe-AFC substrate, 60 min pre-incubation. Here is the method:
Media was changed every three to four days and cells were not allowed to exceed 1×10^6 cells per mL. Prior to assay, cells were collected by centrifugation at 500 rcf for 3 minutes, resuspended in PBS and counted. Cells were diluted in PBS to a concentration of 5×10^5 live cells per mL and transferred to black 96-well plates for assay, 60 μL per well. Test articles were diluted in PBS plus 0.5% DMSO, and 20 μL was added to each assay well. Compound was allowed to pre-incubate with cells with gentle shaking at 100 rpm for 60 minutes at 37° C. in a cell culture incubator maintained at 5% CO2, after which 20 μL of 500 μM H-Gly-Phe-AFC substrate (MP Biomedicals; Solon, OH) was added to each well. Plates were returned to the incubator with shaking at 100 rpm for 30 minutes, after which fluorescence was measured at Excitation/Emission 400/505 nm. % Inhibition was calculated from RFU values compared to control cell wells that received only PBS plus 0.5% DMSO. IC50 values for each compound were calculated via the XLFit (IDBS Version 5.3.1.3) Add-On to Microsoft Excel using the four parameter fit equation y=(A+((B-A)/(1+((C/x)^D)))), which appears as equation number 205 (4 Parameter Logistic Model or Sigmoidal Dose-Response Model) in XLFit.

The target in a further experiment is human DPP1 enzyme (Homo sapiens (Human), UniProt P53634). The experiment is described as follows: Human DPP1 enzyme IC50 assay. To be noted: recombinant human DPP1, H-Gly-Arg-AMC substrate 400 μM. It is filed as biochemical. The essentials:
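Fluorogenic readout (350/450 nm, every 5 min over 90 min, 37°C) of H-Gly-Arg-AMC cleavage at 400 μM final substrate. Compounds met activated DPP1 first for a 10-min 37°C pre-incubation in MES buffer pH 6.0 with DTT, 1% DMSO final. Four-parameter sigmoidal fit gave IC50.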

Sequence of human DPP1 enzyme (P53634 25-134): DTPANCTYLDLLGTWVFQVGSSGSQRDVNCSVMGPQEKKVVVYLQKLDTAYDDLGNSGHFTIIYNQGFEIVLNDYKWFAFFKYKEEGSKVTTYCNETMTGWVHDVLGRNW
Sequence of human DPP1 enzyme (P53634 231-394): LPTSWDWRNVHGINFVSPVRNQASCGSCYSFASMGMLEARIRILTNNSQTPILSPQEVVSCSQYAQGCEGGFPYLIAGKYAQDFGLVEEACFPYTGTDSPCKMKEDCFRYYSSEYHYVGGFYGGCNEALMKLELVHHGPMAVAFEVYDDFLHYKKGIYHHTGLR
Sequence of human DPP1 enzyme (P53634 395-463): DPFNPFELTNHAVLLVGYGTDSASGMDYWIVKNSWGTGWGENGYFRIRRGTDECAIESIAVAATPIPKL
Sequence of DPP1 in HL-60 cells (P53634 25-134): as the sequence (P53634 25-134) above
Sequence of DPP1 in HL-60 cells (P53634 231-394): as the sequence (P53634 231-394) above
Sequence of DPP1 in HL-60 cells (P53634 395-463): as the sequence (P53634 395-463) above

`CNC[C@H](OC)C(=O)N[C@H](C#N)Cc1ccc(-c2ccc3oc(=O)n(C)c3c2)cc1` [Compound 109, (S)—N—((S)-1-cyano-2-(4-(3-methyl-2-oxo-2,3-dihydrobenzo[d]oxazol-5-yl)phenyl)ethyl)-2-methoxy-3-(methylamino)propanamide]: the IC50 against DPP1 in HL-60 cells is at least 2.5 nM; on human DPP1 enzyme it was at least 15 nM.

As for `Cn1c(=O)oc2ccc(-c3ccc(C[C@@H](C#N)NC(=O)[C@@H](O)CN)cc3)cc21` [Compound 110, (2S)-3-amino-N-[(1S)-1-cyano-2-[4-(3-methyl-2-oxo-1,3-benzoxazol-5-yl)phenyl]ethyl]-2-hydroxypropanamide], the half-maximal inhibitory concentration (IC50) was at least 2.5 nM on DPP1 in HL-60 cells and at least 15 nM at human DPP1 enzyme.

Regarding `CNC[C@H](O)C(=O)N[C@H](C#N)Cc1ccc(-c2ccc3oc(=O)n(C)c3c2)cc1` [Compound 111, (2S)—N-[(1S)-1-cyano-2-[4-(3-methyl-2-oxo-1,3-benzoxazol-5-yl)phenyl]ethyl]-2-hydroxy-3-(methylamino)propanamide], the IC50 against DPP1 in HL-60 cells is at least 2.5 nM; at human DPP1 enzyme, at least 15 nM.

Regarding `CN(C)C[C@H](O)C(=O)N[C@H](C#N)Cc1ccc(-c2ccc3nnn(C)c3c2)cc1F` [Compound 141, (2S)—N-[(1S)-1-cyano-2-[2-fluoro-4-(3-methyl-1,2,3-benzotriazol-5-yl)phenyl]ethyl]-3-(dimethylamino)-2-hydroxypropanamide], the IC50 was in the range of 1 to 2.5 nM against DPP1 in HL-60 cells and 5 to 15 nM at human DPP1 enzyme.

As for `CN(C)C[C@H](O)C(=O)N[C@H](C#N)Cc1ccc(-c2ccc3oc(=O)n(CCN4CCOCC4)c3c2)cc1F` [Compound 142, (2S)—N-[(1S)-1-cyano-2-(2-fluoro-4-{3-[2-(morpholin-4-yl)ethyl]-2-oxo-1,3-benzoxazol-5-yl}phenyl)ethyl]-3-(dimethylamino)-2-hydroxypropanamide], the IC50 against DPP1 in HL-60 cells is at least 2.5 nM; on human DPP1 enzyme it was 5 to 15 nM.

Turning to `CN(C)C[C@H](O)C(=O)N[C@H](C#N)Cc1ccc(-c2ccc3c(c2)C2(CCN(C4COC4)CC2)OC3)cc1` [Compound 144, (2S)—N-[(1S)-1-cyano-2-{4-[1′-(oxetan-3-yl)-3H-spiro[2-benzofuran-1,4′-piperidin]-6-yl]phenyl}ethyl]-3-(dimethylamino)-2-hydroxypropanamide], the IC50 against DPP1 in HL-60 cells was at least 2.5 nM; on human DPP1 enzyme, at least 15 nM.

On to `CN(C)C[C@H](O)C(=O)N[C@H](C#N)Cc1ccc(-c2ccc3c(c2)C2(CCCN(C)C2)C(=O)N3C)cc1` (stereo partly drawn) [Compound 145, (2S)—N-[(1S)-1-cyano-2-(4-{1,1′-dimethyl-2-oxospiro[indole-3,3′-piperidin]-5-yl}phenyl)ethyl]-3-(dimethylamino)-2-hydroxypropanamide], for which the values for the IC50 against DPP1 in HL-60 cells and at human DPP1 enzyme were 1 to 2.5 nM and at least 15 nM, respectively.

On to `CCCCOCCn1c(=O)oc2ccc(-c3ccc(C[C@@H](C#N)NC(=O)[C@@H](O)CN(C)C)c(F)c3)cc21` [Compound 146, (2S)—N-[(1S)-2-{4-[3-(2-butoxyethyl)-2-oxo-1,3-benzoxazol-5-yl]-2-fluorophenyl}-1-cyanoethyl]-3-(dimethylamino)-2-hydroxypropanamide], for which the IC50 against DPP1 in HL-60 cells is at least 2.5 nM; at human DPP1 enzyme, 5 to 15 nM.

With `Cn1c(=O)oc2ccc(-c3ccc(C[C@@H](C#N)NC(=O)[C@H](N)CCO)cc3)cc21` [Compound 169, (2R)-2-amino-N-[(1S)-1-cyano-2-[4-(3-methyl-2-oxo-1,3-benzoxazol-5-yl)phenyl]ethyl]-4-hydroxybutanamide], the half-inhibitory concentration (IC50) against DPP1 in HL-60 cells is at least 2.5 nM; at human DPP1 enzyme, at least 15 nM.

On to `C[C@@H](O)[C@](C)(N)C(=O)N[C@H](C#N)Cc1ccc(-c2ccc3oc(=O)n(C)c3c2)cc1` [Compound 171A, (2S,3R)-2-amino-N-[(1S)-1-cyano-2-[4-(3-methyl-2-oxo-1,3-benzoxazol-5-yl)phenyl]ethyl]-3-hydroxy-2-methylbutanamide], for which the IC50 was at least 2.5 nM against DPP1 in HL-60 cells and at least 15 nM on human DPP1 enzyme.

Turning to `C[C@H](O)[C@](C)(N)C(=O)N[C@H](C#N)Cc1ccc(-c2ccc3oc(=O)n(C)c3c2)cc1` [Compound 171B, (2S,3S)-2-amino-N-[(1S)-1-cyano-2-[4-(3-methyl-2-oxo-1,3-benzoxazol-5-yl)phenyl]ethyl]-3-hydroxy-2-methylbutanamide], the results for the IC50 against DPP1 in HL-60 cells and at human DPP1 enzyme were at least 2.5 nM and at least 15 nM, respectively.

As to `CC(C)C(C)(N)C(=O)N[C@H](C#N)Cc1ccc(-c2ccc3oc(=O)n(C)c3c2)cc1` (stereo partly drawn) [Compound 172, 2-amino-N-[(1S)-1-cyano-2-[4-(3-methyl-2-oxo-1,3-benzoxazol-5-yl)phenyl]ethyl]-2,3-dimethylbutanamide], the IC50 fell in the range of 1 to 2.5 nM against DPP1 in HL-60 cells and 5 to 15 nM at human DPP1 enzyme.

With `Cn1c(=O)oc2ccc(-c3ccc(C[C@@H](C#N)NC(=O)CC(N)C4CCCCC4)cc3)cc21` (stereo partly shown) [Compound 188], the IC50 on DPP1 in HL-60 cells was at least 2.5 nM; on human DPP1 enzyme, at least 15 nM.

With `CC(C(=O)N[C@H](C#N)Cc1ccc(-c2ccc3oc(=O)n(C)c3c2)cc1)C1(N)CC1` (stereo partly shown) [Compound 195], the figures for the IC50 at DPP1 in HL-60 cells and at human DPP1 enzyme were at least 2.5 nM and at least 15 nM, respectively.

On to `Cn1c(=O)oc2ccc(-c3ccc(C[C@@H](C#N)NC(=O)C(N)Cc4cccnc4O)cc3)cc21` (stereo partly drawn) [Compound 199, 2-amino-N-[(1S)-1-cyano-2-[4-(3-methyl-2-oxo-1,3-benzoxazol-5-yl)phenyl]ethyl]-3-(2-hydroxypyridin-3-yl)propanamide], for which the IC50 at DPP1 in HL-60 cells was at least 2.5 nM; on human DPP1 enzyme, at least 15 nM.

Take `Cn1c(=O)oc2ccc(-c3ccc(C[C@@H](C#N)NC(=O)C(N)Cc4cncs4)cc3)cc21` (stereo partly drawn) [Compound 201, 2-amino-N-[(1S)-1-cyano-2-[4-(3-methyl-2-oxo-1,3-benzoxazol-5-yl)phenyl]ethyl]-3-(1,3-thiazol-5-yl)propanamide]: the IC50 is at least 2.5 nM at DPP1 in HL-60 cells and at least 15 nM on human DPP1 enzyme.

On to `Cn1c(=O)oc2ccc(-c3ccc(C[C@@H](C#N)NC(=O)[C@@H](N)Cc4cccnc4)cc3)cc21` [Compound 202, (S)-2-amino-N—((S)-1-cyano-2-(4-(3-methyl-2-oxo-2,3-dihydrobenzo[d]oxazol-5-yl)phenyl)ethyl)-3-(pyridin-3-yl)propanamide], for which the concentration for half-maximal inhibition (IC50) against DPP1 in HL-60 cells was at least 2.5 nM; at human DPP1 enzyme, 5 to 15 nM.

Turning to `Cn1c(=O)oc2ccc(-c3ccc(C[C@@H](C#N)NC(=O)C(N)Cc4ccccc4O)cc3)cc21` (stereo partly drawn) [Compound 203, 2-amino-N-[(1S)-1-cyano-2-[4-(3-methyl-2-oxo-1,3-benzoxazol-5-yl)phenyl]ethyl]-3-(2-hydroxyphenyl)propanamide], the figures for the IC50 against DPP1 in HL-60 cells and on human DPP1 enzyme were at least 2.5 nM and 5 to 15 nM, respectively.

Take `Cn1c(=O)oc2ccc(-c3ccc(C[C@@H](C#N)NC(=O)C(N)Cc4cocn4)cc3)cc21` (stereo partly drawn) [Compound 204, 2-amino-N-[(1S)-1-cyano-2-[4-(3-methyl-2-oxo-1,3-benzoxazol-5-yl)phenyl]ethyl]-3-(1,3-oxazol-4-yl)propanamide]: the figures for the IC50 against DPP1 in HL-60 cells and on human DPP1 enzyme were 1 to 2.5 nM and at most 5 nM, respectively.

With `Cn1c(=O)oc2ccc(-c3ccc(C[C@@H](C#N)NC(=O)[C@@H](N)[C@@H]4CCc5ccccc54)cc3)cc21` [Compound 206, (S)-2-amino-N—((S)-1-cyano-2-(4-(3-methyl-2-oxo-2,3-dihydrobenzo[d]oxazol-5-yl)phenyl)ethyl)-2-((R)-2,3-dihydro-1H-inden-1-yl)acetamide], the values for the IC50 on DPP1 in HL-60 cells and on human DPP1 enzyme were at least 2.5 nM and at least 15 nM, respectively.
